“Also recorded” adds a separate entry of the source. Counter-ions that a name gives are not always drawn.
Key:
in vivo = settings: female, Sprague Dawley, rat, plasma, po, 250 mg/kg
GPBP = GPBP Western blot of treated A549 cells; format: cell-based; settings: 10 mM, 3 hours
Description: After the incubation time, cells were washed twice with PBS and lysed in 25 mM Tris-HCl, pH 7.4, 140 mM NaCl, 3 mM KCl, 20 mM NaF, 1 mM PMSF, 10 μg/mL leupeptin, 1% Triton X-100 for 20 min at 4° C. The lysates were centrifuged at 20,000×g for 10 min at 4° C., supernatants were recovered, and protein concentration determined
Equal amounts of each lysate (40 μg) were analyzed by Western blot, with monoclonal antibodies against GPBP N27 (Fibrostatin SL) and against tubulin (Sigma). Electrophoresis was performed in polyacrylamide gel (6.5%) with SDS, after which electroblotting was carried out to PVDF membrane (Immobilon P, Millipore Merck). After transfer, the membranes were blocked in 5% skim milk in 25 mM Tris-HCl, pH 7.5, 150 mM NaCl, 0.05% Tween-20 (TBST) for 45 min, and then incubated with primary antibodies diluted in blocking solution for 16 hours at 4° C. Thereafter, the membranes were washed with TBST (3×5 minutes) and incubated with secondary antibodies against mouse IgG, conjugated to horseradish peroxidase (HRP) (Sigma) for 1 hours at room temperature while stirring. After further washes with TBST (3×5 minutes), the chemiluminescence disclosure was performed by using the ECL Prime reagent (GE Healthcare) and the image generation system ImageQuant LAS 4000 Mini (GE Healthcare).
The Western blots disclosure images were analyzed with the ImageJ WCIF program.

[1] = system: GPBP, LKB1/STRADα/MO25, AMPK, AS160; test: In vitro phosphorylation of GPBP with LKB1 complex, AMPK and AS160; settings: LKB1 complex without GPBP
Description: Reactions were stopped with a reducing loading buffer, analyzed by SDS-PAGE, and electrotransferred to PVDF membrane. Membranes were exposed to autoradiography during the indicated exposition times (exp.). Arrows show the identity of the bands observed in autoradiographs.
Arrows and lines to the right of the image show the identity of phosphorylated polypeptides. Upper images and those in the middle come from autoradiographs taken at several exposure times.
To understand this phenomenon at the molecular level, we conducted in vitro phosphorylation experiments with GPBP and the commercial protein complex LKB1/STRADα/MO25 (Millipore) (FIG. 72). STRADα and MO25 are supporters necessary to activate LKB1. […] It cannot be excluded, however, that the simple interaction of kinases activates corresponding autophosphorylation processes.
To further explain the above results, a more physiological approach in the in vitro assays was performed. A combination of LKB1/STRADα, GPBP, and AMPK/AS160 was used, i.e., each kinase was added with its own substrate except GPBP, which acted as both an enzyme and substrate at the same time (autophosphorylation) (FIG. 73).

[2] = system: AMPK and GLUT4 in NIH-3T3-L1 adipocytes; test: AMPK activation and GLUT4 in plasma membrane of L1 adipocytes (Western blot); format: cell-based, Mice; settings: 10 mM, 3 hours
Description: . 2 days in culture media supplemented with insulin 1 μg/mL; and 6 days in culture media. […]. Similar quantities of each extract were analyzed using Western blot (SDS-PAGE and electrotransfer), with the indicated antibodies and chemiluminescence (ECL Prime, GE Healthcare). FIGS. 70B-C show pictures of L1 adipocyte cultures treated as in FIG. 70A and exposed to fractioning for protein extraction from plasma membrane by a procedure described above (Nishiumi & Ashida. Biosci Biotechnol Biochem. 2007; 71:2343-6). Briefly, cells were washed with PBS and collected in solution A (Tris 50 mM, pH 8.0, DTT 0.5 mM, 0.1% Nonidet P-40, PMSF 1 mM, leupeptin 5 μg/mL, aprotinin 5 μg/mL, NaF 10 mM, Na3VO4 1 mM) and lysed manually with a Dounce homogenizer (20 pestle movements). Homogenized solutions were centrifuged (1000×g, 10 minutes, 4° C.), cell precipitates were dispersed in solution A, without Nonidet P-40, stored in ice for 10 minutes, occasionally stirred, and centrifuged again (1000×g, 10 minutes, 4° C.). […]. Supernatants were stored at −80° C. until analysis. Equivalent quantities of demembrane extracts were analyzed by Western blot with anti-GLUT4 (Abcam) antibodies. […]

L1 adipocytes = test: Inflammation markers in L1 adipocytes treated with palmitate (RT-qPCR); format: cell-based, Mice; settings: palmitate 500 μM, 10 mM, 24 hours (FIG. 79)
Description: FIG. 79. […] Differentiated L1 adipocytes (cells) were treated for 24 hours with palmitate (500 μM), either in the presence or in the absence of SLN1 or SLN10 (10 mM). Subsequently, the relative expression of inflammation markers was analyzed by RT and qPCR, using HPRT-1 as a normalizer and as a reference for expression levels of non-treated cells (MCP-1 and IL-12), and for those treated only with palmitate (proIL-1β, TNFα, iNOS, IL-6). Briefly, once finished, culture media treatments were collected for subsequent analysis, cells were washed with PBS, and RNA was extracted (illustra RNAspin Mini, GE Healthcare) and retro-transcribed (High Capacity cDNA Reverse Transcription Kit, Life Technologies); then, the genes under study were analyzed by using a quantitative PCR with specific probes (TaqMan® Gene Expression Assays, Life Technologies), estimating the relative quantification (RQ) with the ΔΔ Ct method.
Palmitate is a saturated fatty acid that simulates an experimental obese state. It can be used as a pro-inflammatory stimulant for cytokines such as proIL-1β, TNFα, INOS, IL-6, MCP-1, and IL-12. Adipocytes cultured in the absence or presence of palmitate were treated with SLN1 or SLN10, and the expression of inflammation markers was determined by quantitative RT-PCR (FIG. 79).

| Compound | AUC(0-t) (in vivo) [ng·h/mL] | Cmax (in vivo) [ng/mL] | Tmax (in vivo) [min] | concentration at 0.5 h (in vivo) [ng/mL] | concentration at 1 h (in vivo) [ng/mL] | concentration at 2 h (in vivo) [ng/mL] | concentration at 4 h (in vivo) [ng/mL] | concentration at 8 h (in vivo) [ng/mL] | concentration at 24 h (in vivo) [ng/mL] | GPBP polypeptides reactive with N27 (GPBP; pH 7.5, listed as SLN10) | GPBP polypeptides reactive with N27 (GPBP; pH 9.3) | LKB1 autophosphorylation and STRADα phosphorylation [1] | AMPK activation [2] | GLUT4 accumulation in the plasma membrane [2] | attenuation of inflammatory response of adipocytes stimulated with palmitate (L1 adipocytes) |
| --- | --- | --- | --- | --- | --- | --- | --- | --- | --- | --- | --- | --- | --- | --- | --- |
| CN(C)C(=N)N=C(N)N [Metformin hydrochloride, metformin hydrochloride, reference compound] | 82000 | 16300 | 30 | 16300 ± 5100 | 14800 ± 5070 | 11900 ± 3240 | 6830 ± 1650 | 3140 ± 1050 | 190 ± 100 | – | – | – | – | – | – |
| metformin lysinate | – | – | – | – | – | – | – | – | – | more abundant in culture extracts treated with SLN10; also recorded: shifts to positions of less molecular weight | shifts to positions of less molecular weight | trigger a discrete LKB1 autophosphorylation | activates AMPK | induces a GLUT4 accumulation in the plasma membrane | much more effective |
